Reference: ChEMBL document CHEMBL5154881, “Discovery of First-in-Class TAK1-MKK3 Protein-Protein Interaction (PPI) Inhibitor (R)-STU104 for the Treatment of Ulcerative Colitis through Modulating TNF-α Production” (J Med Chem, 2022)

Legend:
[1] = biological target: T1, Dual specificity mitogen-activated protein kinase kinase 3 (Homo sapiens) (UniProt P46734); experiment: Inhibition of human MMK3 at 50 uM using SAPK2a as substrate incubated for 120 mins in presence of [gamma-33P]-ATP by scintillation counting method relative to control
T1 sequence (whole entry): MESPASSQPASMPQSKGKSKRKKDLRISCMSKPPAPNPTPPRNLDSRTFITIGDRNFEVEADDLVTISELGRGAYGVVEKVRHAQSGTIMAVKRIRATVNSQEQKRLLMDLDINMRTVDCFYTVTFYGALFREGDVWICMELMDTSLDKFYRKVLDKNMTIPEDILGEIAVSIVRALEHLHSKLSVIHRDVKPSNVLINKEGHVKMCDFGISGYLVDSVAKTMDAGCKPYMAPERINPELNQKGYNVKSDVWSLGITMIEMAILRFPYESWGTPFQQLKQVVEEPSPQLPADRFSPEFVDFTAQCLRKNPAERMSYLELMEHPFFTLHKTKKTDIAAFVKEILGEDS

Mus musculus [2] = experiment: Anti-ulcerative colitis activity in DSS-induced C57BL/6 mouse ulcerative colitis model assessed as histopathological score recovery ratio at 3 mg/kg, IG via gavage measured after 7 days by H and E staining method relative to control; type: functional; conditions: time 7 day
Mus musculus [3] = experiment: Antiinflammatory activity against DSS-induced C57BL/6 mouse model of acute ulcerative colitis assessed as reduction in serum IL-6 levels administered intragastrically via gavage measured after 7 days by ELISA; type: functional, organism-based; conditions: dose 1-10 mg/kg, route ig, time 7.0 day, DDE = dose-dependent effect
[4] = Inhibition of MKK3-p38-elF4E signaling pathway in mouse RAW264.7 cells assessed as inhibition of LPS-induced MKK3 phosphorylation; type: cell-based
Mus musculus [5] = experiment: Anti-ulcerative colitis activity in DSS-induced C57BL/6 mouse ulcerative colitis model assessed as histopathological score recovery ratio at 1 mg/kg, IG via gavage measured after 7 days by H and E staining method relative to control; type: functional; conditions: time 7 day
[6] = MRT (0 to infinity) in 12 hr starved C57 mouse at 5 mg/kg, iv measured for 0.083 to 24 hrs post-dose by LC-MS-MS analysis; type: ADME, organism-based; conditions: in vivo, time 0.083-24 hrs
Mus musculus [7] = experiment: Antiinflammatory activity against DSS-induced C57BL/6 mouse model of acute ulcerative colitis assessed as inhibition ratio of IL-1beta protein expression at 1 mg/kg, IG via gavage measured after 7 days by ELISA relative to control; type: functional; parameters: scale not given: the % may be the effect or the level left; conditions: time 7 day

## COc1ccc([C@H]2CC(=O)c3cc(OC)cc(OC)c32)cc1
[1]
  inhibition: < 10%
Mus musculus [2]
  Activity: 41.7%
Mus musculus [3]
  Activity: Dde
[4]
  IC50: 4 µM
Mus musculus [5]
  Activity: 25%
[6]
  MRT inf: 7.32 h
Mus musculus [7]
  Activity: 46.9%
